Reference: US20010011063A1, “Substituted 2,4-diamino-1,3,5-triazines, processes for their preparation and their use as herbicides and plant growth regulators” (priority 1999, published 2001)

Tests used:
Format in all cases: in vivo
[1] = test system: Cyperus monti, Echinochloa crus-galli and Sagitaria pygmaea; assay: Action on harmful plants in rice (paddy rice conditions); conditions: poured into the dammed water, visual scoring about three weeks after application; further: test concentration or dose not given here
[2] = test system: Sinapis alba, Echinochloa crus-galli, Lolium multiforum, Stellaria media, Cyperus iria, Amaranthus retroflexus, Settaria viridis and Avena sativa; assay: Post-emergence effect on weeds (greenhouse pot test); conditions: application rate of 1 kg or less of active substance per hectare; treated at the three-leaf stage; scored visually after about 3 to 4 weeks vs untreated controls
[3] = test system: Stellaria media, Lolium multiflorum, Amaranthus retroflexus, Sinapis alba, Avena sativa and Settaria viridis; assay: Pre-emergence effect on weeds (greenhouse pot test); conditions: application rate of 1 kg or less of active substance per hectare; visually scored after 3 to 4 weeks by comparison with untreated controls
Excerpt: Seeds or rhizome pieces of mono and dicotyledonous weed plants are placed in sandy loam soil in plastic pots and covered with soil. The compounds according to the invention which are formulated in the form of wettable powders or emulsion concentrates are then applied to the soil cover in the form of aqueous suspensions or emulsions at an application rate of 600 to 800 l of water/ha (converted), in various dosages.

CC(C)c1nc(N)nc(NC(Cc2ccccc2)CC2CC2)n1 (stereo not drawn) [Example 5-3]
very good herbicidal activity: herbicidal activity against harmful plants which are typical for rice crops [1] | herbicidal activity post-emergence against harmful plants [2] | herbicidal activity pre-emergence against harmful plants [3]

CC(C)c1nc(N)nc(NC(CCCCc2ccccc2)C2CC2)n1 (stereo not drawn) [Example 5-43]
very good herbicidal activity: herbicidal activity against harmful plants which are typical for rice crops [1] | herbicidal activity post-emergence against harmful plants [2] | herbicidal activity pre-emergence against harmful plants [3]

CC(C)(F)c1nc(N)nc(NC(CCCCc2ccccc2)C2CC2)n1 (stereo not drawn) [Example 5-44]
very good herbicidal activity: herbicidal activity against harmful plants which are typical for rice crops [1] | herbicidal activity post-emergence against harmful plants [2] | herbicidal activity pre-emergence against harmful plants [3]

CC(C)(F)c1nc(N)nc(NC(CCCCc2ccccc2)C2CCC2)n1 (stereo not drawn) [Example 5-47]
very good herbicidal activity: herbicidal activity against harmful plants which are typical for rice crops [1] | herbicidal activity post-emergence against harmful plants [2] | herbicidal activity pre-emergence against harmful plants [3]

CC(C)Cc1nc(N)nc(N[C@H](Cc2ccccc2)CC2CC2)n1 [Example 6-1]
very good herbicidal activity: herbicidal activity against harmful plants which are typical for rice crops [1] | herbicidal activity post-emergence against harmful plants [2] | herbicidal activity pre-emergence against harmful plants [3]

CC(C)(F)c1nc(N)nc(N[C@H](Cc2ccccc2)CC2CC2)n1 [Example 6-2]
very good herbicidal activity: herbicidal activity against harmful plants which are typical for rice crops [1] | herbicidal activity post-emergence against harmful plants [2] | herbicidal activity pre-emergence against harmful plants [3]

CC(C)c1nc(N)nc(N[C@H](Cc2ccccc2)CC2CC2)n1 [Example 6-3]
very good herbicidal activity: herbicidal activity against harmful plants which are typical for rice crops [1] | herbicidal activity post-emergence against harmful plants [2] | herbicidal activity pre-emergence against harmful plants [3]

CC(C)c1nc(N)nc(N[C@H](CCCCc2ccccc2)C2CC2)n1 [Example 6-43]
very good herbicidal activity: herbicidal activity against harmful plants which are typical for rice crops [1] | herbicidal activity post-emergence against harmful plants [2] | herbicidal activity pre-emergence against harmful plants [3]

CC(C)(F)c1nc(N)nc(N[C@H](CCCCc2ccccc2)C2CC2)n1 [Example 6-44]
very good herbicidal activity: herbicidal activity against harmful plants which are typical for rice crops [1] | herbicidal activity post-emergence against harmful plants [2] | herbicidal activity pre-emergence against harmful plants [3]

CC(C)(F)c1nc(N)nc(N[C@H](CCCCc2ccccc2)C2CCC2)n1 [Example 6-47]
very good herbicidal activity: herbicidal activity against harmful plants which are typical for rice crops [1] | herbicidal activity post-emergence against harmful plants [2] | herbicidal activity pre-emergence against harmful plants [3]
